PubChem BioAssay AID256 (DTP/NCI, 2004)
Values joined by “and” are separate entries in the source; they are usually repeats but may differ in a detail not shown here. Equal values may be shown once. Toxic doses and inconclusive results are not listed. Rule for the calls: active = survival T/C of 150% or more; inactive = T/C below 125% in these data.

Tested on: CD2F1 mice, L1210 leukemia ip, survival T/C
Experiment: NCI In Vivo Anticancer Drug Screen. Data for tumor model L1210 Leukemia (intraperitoneal) in CD2F1 (CDF1) mice
Details: higher = longer survival
In short: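 Antitumor effect is scored in animals hosting a serially transplanted tumor. Values compare compound-dosed animals against vehicle-only controls as a simple quotient.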

Measured: T/C

C[Si](C)(CCl)N[Si](C)(C)CCl
inactive: endpoint: mean survival time, dose: 100.0 mg/kg/injection, schedule: Q01DX009 (ip), vehicle: saline with Tween-80 100 % of control | endpoint: mean survival time, dose: 100.0 mg/kg/injection, schedule: Q04DX003 (ip), vehicle: saline with Tween-80 98 % of control | endpoint: mean survival time, dose: 200.0 mg/kg/injection, schedule: Q01DX009 (ip), vehicle: saline with Tween-80 97 % of control | endpoint: mean survival time, dose: 200.0 mg/kg/injection, schedule: Q04DX003 (ip), vehicle: saline with Tween-80 96 % of control | endpoint: mean survival time, dose: 400.0 mg/kg/injection, schedule: Q01DX009 (ip), vehicle: saline with Tween-80 100 % of control | endpoint: mean survival time, dose: 400.0 mg/kg/injection, schedule: Q04DX003 (ip), vehicle: saline with Tween-80 102 % of control

C=C(C)C12OC3(CCCCCCCCC)OC1C1C4OC4(COC(=O)CCCCCCCCCCCCCCC)C(O)C4(O)C(=O)C(C)=CC4C1(O3)C(C)C2OC(=O)c1ccccc1 (centres undefined)
inactive: endpoint: mean survival time, dose: 5.0 micrograms/kg/injection, schedule: Q01DX009 (ip), vehicle: saline + alcohol 97 % of control | endpoint: mean survival time, dose: 10.0 micrograms/kg/injection, schedule: Q01DX009 (ip), vehicle: saline + alcohol 117 % of control | endpoint: mean survival time, dose: 20.0 micrograms/kg/injection, schedule: Q01DX009 (ip), vehicle: saline + alcohol 105 % of control | endpoint: mean survival time, dose: 40.0 micrograms/kg/injection, schedule: Q01DX009 (ip), vehicle: saline + alcohol 112 % of control

CN(C)c1ccc(C(=N)c2ccc(N(C)C)cc2)cc1 (tested in a mixture with another compound)
inactive: endpoint: mean survival time, dose: 12.5 mg/kg/injection, schedule: Q01DX009 (ip), vehicle: saline with Tween-80 98 % of control | endpoint: mean survival time, dose: 50.0 mg/kg/injection, schedule: Q01DX009 (ip), vehicle: saline with Tween-80 93 % of control

C=C1C(=O)OC2CC(C)C3CC(O)OC(O)C3(C)CC12 (centres undefined)
inactive: endpoint: mean survival time, dose: 3.13 mg/kg/injection, schedule: Q01DX005 (ip), vehicle: water 88 % of control | endpoint: mean survival time, dose: 6.25 mg/kg/injection, schedule: Q01DX005 (ip), vehicle: water 94 % of control | endpoint: mean survival time, dose: 12.5 mg/kg/injection, schedule: Q01DX005 (ip), vehicle: water 102 % of control

CO[C@@]12[C@@H]3N[C@@H]3CN1C1=C(C(=O)C(N(C)c3ccc(O)cc3)=C(C)C1=O)[C@@H]2COC(N)=O
inactive: endpoint: median survival time, dose: 3.0 mg/kg/injection, schedule: Q01DX001 (ip), vehicle: distilled water + Tween-80 100 % of control | endpoint: median survival time, dose: 6.0 mg/kg/injection, schedule: Q01DX001 (ip), vehicle: distilled water + Tween-80 121 % of control | endpoint: median survival time, dose: 12.0 mg/kg/injection, schedule: Q01DX001 (ip), vehicle: distilled water + Tween-80 117 % of control and 102 % of control | endpoint: median survival time, dose: 24.0 mg/kg/injection, schedule: Q01DX001 (ip), vehicle: distilled water + Tween-80 113 % of control
